{"source": "patent US4364958A", "about": "“1-Substituted-3-cycloalkyl-sulfonyl-pyrrolidine-2,5-dione derivatives and fungicidal compositions thereof” (Chinoin Gyogyszer es Vegyeszeti Termekek Gyara Rt., priority 1979, dated 1982)", "key": {"LD50, intraperitoneal": {"assay": "LD50, intraperitoneal", "details": "mouse, in vivo, ip, intraperitoneally", "source_text": "LD50 of N-pheny-3-cyclohexyl-sulfonyl-pyrrolidine-2,3-dione when applied intraperitoneally"}, "Candida vini": {"test_system": "Candida vini", "assay": "minimal inhibitory concentration, proliferating fungi", "assay_type": "cell-based", "details": "Kregervanrija fluxuum", "source_text": "(§1) As a medium Saboroud medium was employed."}, "Candida guilliermondii": {"test_system": "Candida guilliermondii", "assay": "minimal inhibitory concentration, proliferating fungi", "assay_type": "cell-based", "details": "Meyerozyma guilliermondii", "source_text": "as §1"}, "Candida lipolytic": {"test_system": "Candida lipolytic", "assay": "minimal inhibitory concentration, proliferating fungi", "assay_type": "cell-based", "source_text": "as §1"}, "Candida humicola": {"test_system": "Candida humicola", "assay": "minimal inhibitory concentration, proliferating fungi", "assay_type": "cell-based", "details": "Vanrija humicola", "source_text": "as §1"}, "Candida pseudotropic": {"test_system": "Candida pseudotropic", "assay": "minimal inhibitory concentration, proliferating fungi", "assay_type": "cell-based", "source_text": "as §1"}, "Candida parapsilosis": {"test_system": "Candida parapsilosis", "assay": "minimal inhibitory concentration, proliferating fungi", "assay_type": "cell-based", "details": "Lodderomyces parapsilosis", "source_text": "as §1"}, "Candida valida": {"test_system": "Candida valida", "assay": "minimal inhibitory concentration, proliferating fungi", "assay_type": "cell-based", "details": "Pichia membranifaciens", "source_text": "as §1"}, "Candida benhamii": {"test_system": "Candida benhamii", "assay": "minimal inhibitory concentration, proliferating fungi", "assay_type": "cell-based", "source_text": "as §1"}}}
{"molecule": "O=C1CC(S(=O)(=O)C2CCCCC2)C(=O)N1c1ccccc1", "note": "(stereo not drawn) [1-Phenyl-3-cyclohexyl-sulfonyl-pyrrolidine-2,5-dione]", "values": [{"measurement": "LD50", "setting": "LD50, intraperitoneal; female mice", "result": 382, "unit": "mg/kg"}, {"measurement": "LD50", "setting": "LD50, intraperitoneal; male mice", "result": 461, "unit": "mg/kg"}]}
{"molecule": "Cc1ccc(N2C(=O)CC(S(=O)(=O)C3CCCCC3)C2=O)cc1", "note": "(stereo not drawn)", "values": [{"measurement": "MIC", "setting": "Candida vini; 24 hours", "result": 1, "unit": "µg/mL"}, {"measurement": "MIC", "setting": "Candida vini; 48 hours", "result": 5, "unit": "µg/mL"}, {"measurement": "MIC", "setting": "Candida guilliermondii; 24 hours", "result": 5, "unit": "µg/mL"}, {"measurement": "MIC", "setting": "Candida guilliermondii; 48 hours", "result": 10, "unit": "µg/mL"}, {"measurement": "MIC", "setting": "Candida lipolytic; 24 hours", "result": 5, "unit": "µg/mL"}, {"measurement": "MIC", "setting": "Candida lipolytic; 48 hours", "result": 10, "unit": "µg/mL"}, {"measurement": "MIC", "setting": "Candida humicola; 24 hours", "result": 5, "unit": "µg/mL"}, {"measurement": "MIC", "setting": "Candida humicola; 48 hours", "result": 25, "unit": "µg/mL"}, {"measurement": "MIC", "setting": "Candida pseudotropic; 24 hours", "result": 2.5, "unit": "µg/mL"}, {"measurement": "MIC", "setting": "Candida pseudotropic; 48 hours", "result": 10, "unit": "µg/mL"}, {"measurement": "MIC", "setting": "Candida parapsilosis; 24 hours", "result": 10, "unit": "µg/mL"}, {"measurement": "MIC", "setting": "Candida parapsilosis; 48 hours", "result": 50, "unit": "µg/mL"}, {"measurement": "MIC", "setting": "Candida valida; 24 hours", "result": 5, "unit": "µg/mL"}, {"measurement": "MIC", "setting": "Candida valida; 48 hours", "result": 10, "unit": "µg/mL"}, {"measurement": "MIC", "setting": "Candida benhamii; 24 hours", "result": 25, "unit": "µg/mL"}, {"measurement": "MIC", "setting": "Candida benhamii; 48 hours", "result": 75, "unit": "µg/mL"}]}
